# Data: US20040102622A1, “Modulation of hepatocyte growth factor receptor expression” (Isis Pharmaceuticals Inc., priority 2002, published 2004)
# Tested on: human hepatocyte growth factor receptor mRNA
row,Substance,inhibition of human hepatocyte growth factor receptor expression
1,"ISIS 155128: 2′-MOE gapmer, phosphorothioate backbone, sequence actgtgaatttttcatccag (antisense ACTGTGAATTTTTCATCCAG; all phosphorothioate, sugars by position and methylation of C not given here; 2'-MOE gapmer)",at least 35%
2,"ISIS 155129: 2′-MOE gapmer, phosphorothioate backbone, sequence gattgggtccgtaaaaatgc (antisense GATTGGGTCCGTAAAAATGC; all phosphorothioate, sugars by position and methylation of C not given here; 2'-MOE gapmer)",at least 35%
3,"ISIS 155130: 2′-MOE gapmer, phosphorothioate backbone, sequence tctctgaactcaggtaaaac (antisense TCTCTGAACTCAGGTAAAAC; all phosphorothioate, sugars by position and methylation of C not given here; 2'-MOE gapmer)",at least 35%
4,"ISIS 155132: 2′-MOE gapmer, phosphorothioate backbone, sequence gattccctcggtcagaaatt (antisense GATTCCCTCGGTCAGAAATT; all phosphorothioate, sugars by position and methylation of C not given here; 2'-MOE gapmer)",at least 35%
5,"ISIS 155133: 2′-MOE gapmer, phosphorothioate backbone, sequence aaaccatttctgtagttggg (antisense AAACCATTTCTGTAGTTGGG; all phosphorothioate, sugars by position and methylation of C not given here; 2'-MOE gapmer)",at least 35%
6,"ISIS 209521: 2′-MOE gapmer, phosphorothioate backbone, sequence ggaaccagtggagaagtcag (antisense GGAACCAGTGGAGAAGTCAG; all phosphorothioate, sugars by position and methylation of C not given here; 2'-MOE gapmer)",at least 35%
7,"ISIS 209522: 2′-MOE gapmer, phosphorothioate backbone, sequence agaggtttatctttcggtgc (antisense AGAGGTTTATCTTTCGGTGC; all phosphorothioate, sugars by position and methylation of C not given here; 2'-MOE gapmer)",at least 35%
8,"ISIS 209523: 2′-MOE gapmer, phosphorothioate backbone, sequence gggccttcattatgagaggt (antisense GGGCCTTCATTATGAGAGGT; all phosphorothioate, sugars by position and methylation of C not given here; 2'-MOE gapmer)",at least 35%
9,"ISIS 209524: 2′-MOE gapmer, phosphorothioate backbone, sequence ctcatgtagaatgacattct (antisense CTCATGTAGAATGACATTCT; all phosphorothioate, sugars by position and methylation of C not given here; 2'-MOE gapmer)",at least 35%
10,"ISIS 209525: 2′-MOE gapmer, phosphorothioate backbone, sequence ctggtccgtcaaaaacataa (antisense CTGGTCCGTCAAAAACATAA; all phosphorothioate, sugars by position and methylation of C not given here; 2'-MOE gapmer)",at least 35%
11,"ISIS 209526: 2′-MOE gapmer, phosphorothioate backbone, sequence ttgatagggaatgcacacat (antisense TTGATAGGGAATGCACACAT; all phosphorothioate, sugars by position and methylation of C not given here; 2'-MOE gapmer)",at least 35%
12,"ISIS 209527: 2′-MOE gapmer, phosphorothioate backbone, sequence cgcttcacagcctgatgaat (antisense CGCTTCACAGCCTGATGAAT; all phosphorothioate, sugars by position and methylation of C not given here; 2'-MOE gapmer)",at least 35%
13,"ISIS 209528: 2′-MOE gapmer, phosphorothioate backbone, sequence ttgggaaaaccttgtagatt (antisense TTGGGAAAACCTTGTAGATT; all phosphorothioate, sugars by position and methylation of C not given here; 2'-MOE gapmer)",at least 35%
14,"ISIS 209529: 2′-MOE gapmer, phosphorothioate backbone, sequence cccagccacatatggtcagc (antisense CCCAGCCACATATGGTCAGC; all phosphorothioate, sugars by position and methylation of C not given here; 2'-MOE gapmer)",at least 35%
15,"ISIS 209530: 2′-MOE gapmer, phosphorothioate backbone, sequence ttacaggatccacataggag (antisense TTACAGGATCCACATAGGAG; all phosphorothioate, sugars by position and methylation of C not given here; 2'-MOE gapmer)",at least 35%
16,"ISIS 209533: 2′-MOE gapmer, phosphorothioate backbone, sequence caccactggcaaagcaaaat (antisense CACCACTGGCAAAGCAAAAT; all phosphorothioate, sugars by position and methylation of C not given here; 2'-MOE gapmer)",at least 35%
17,"ISIS 209534: 2′-MOE gapmer, phosphorothioate backbone, sequence agcattacttcatataaggg (antisense AGCATTACTTCATATAAGGG; all phosphorothioate, sugars by position and methylation of C not given here; 2'-MOE gapmer)",at least 35%
18,"ISIS 209535: 2′-MOE gapmer, phosphorothioate backbone, sequence ataacaatacaagtcctatg (antisense ATAACAATACAAGTCCTATG; all phosphorothioate, sugars by position and methylation of C not given here; 2'-MOE gapmer)",at least 35%
19,"ISIS 209536: 2′-MOE gapmer, phosphorothioate backbone, sequence cctcccatactagagaagta (antisense CCTCCCATACTAGAGAAGTA; all phosphorothioate, sugars by position and methylation of C not given here; 2'-MOE gapmer)",at least 35%
